Source: patent US9527832B2, “Substituted condensed pyrimidine compounds” (GRÜNENTHAL GMBH, priority 2013, dated 2016)
pIC50: −log10 of the molar value. Values joined by “and” are separate entries in the source; they are usually repeats but may differ in a detail not shown here. Identical values can stand only once.

Molecular target: T1, human PDE4B1 (Homo sapiens, UniProt Q07343)
T1 construct: host or cells: Sf9 cells
Experiment: cAMP HTRF assay to determine the activity of hPDE4B1
Format: biochemical
Conditions: for inhibition at 1 µM: Percentage inhibition of PDE4B at 1 μM test concentration; for pIC50: dose response measurements with eight concentrations, reported as ranges, read-out: IC50
In short: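 Sf9-expressed recombinant human PDE4B1 (4.8 U) in Tris-HCl/MgCl2/DTT/Tween 20 buffer pH 7.8, with cAMP at 40 nM final, 30 min at room temperature. Reaction stopped with IBMX 1 mM; remaining cAMP detected by HTRF (665/620 nm ratio). IC50 from eight-point dose-response, n=2.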

T1 sequence (Q07343 whole entry): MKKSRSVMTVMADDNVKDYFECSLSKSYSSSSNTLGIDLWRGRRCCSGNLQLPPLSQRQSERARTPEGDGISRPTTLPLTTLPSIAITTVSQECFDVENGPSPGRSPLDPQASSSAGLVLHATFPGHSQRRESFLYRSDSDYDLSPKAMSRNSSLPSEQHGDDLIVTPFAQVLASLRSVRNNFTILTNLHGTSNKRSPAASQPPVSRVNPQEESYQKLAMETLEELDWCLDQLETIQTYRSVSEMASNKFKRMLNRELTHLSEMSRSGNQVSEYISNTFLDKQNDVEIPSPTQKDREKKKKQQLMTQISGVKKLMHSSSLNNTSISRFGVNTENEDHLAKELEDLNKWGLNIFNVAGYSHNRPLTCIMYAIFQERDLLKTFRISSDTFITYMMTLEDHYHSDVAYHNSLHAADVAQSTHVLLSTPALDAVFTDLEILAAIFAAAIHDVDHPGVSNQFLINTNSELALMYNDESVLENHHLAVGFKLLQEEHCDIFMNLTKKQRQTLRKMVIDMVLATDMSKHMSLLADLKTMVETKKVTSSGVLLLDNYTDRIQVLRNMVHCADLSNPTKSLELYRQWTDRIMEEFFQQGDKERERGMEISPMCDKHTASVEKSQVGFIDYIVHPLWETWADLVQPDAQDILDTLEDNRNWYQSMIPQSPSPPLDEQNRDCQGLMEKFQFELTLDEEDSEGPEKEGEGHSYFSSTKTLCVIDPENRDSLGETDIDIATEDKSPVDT

SMILES	inhibition at 1 µM	pIC50
O=C(COc1ccc2c(c1)N(c1nc(-c3ccc(Cl)s3)nc3c1CCC3)CC2)N1CCC1 [Compound No. 2-127, 1-(Azetidin-1-yl)-2-((1-(2-(5-chlorothiophen-2-yl)-6,7-dihydro-5H-cyclopenta[d]pyrimidin-4-yl)indolin-6-yl)oxy)ethanone]	43%	
O=C(COc1ccc2c(c1)N(c1nc(-c3ccc(Cl)s3)nc3c1CCC3)CC2)N1CCOCC1 [Compound No. 2-128, 2-((1-(2-(5-Chlorothiophen-2-yl)-6,7-dihydro-5H-cyclopenta[d]pyrimidin-4-yl)indolin-6-yl)oxy)-1-morpholinoethanone]	85%	6.00 to 7.00
CN1CCN(C(=O)COc2ccc3c(c2)N(c2nc(-c4ccc(Cl)s4)nc4c2CCC4)CC3)CC1 [Compound No. 2-129, 2-((1-(2-(5-Chlorothiophen-2-yl)-6,7-dihydro-5H-cyclopenta[d]pyrimidin-4-yl)indolin-6-yl)oxy)-1-(4-methylpiperazin-1-yl)ethanone]	48%	
Cc1ncc(-c2nc3c(c(N4CCc5ccc(OCC(=O)N(C)C)cc54)n2)C[S+]([O-])C3)s1 (centres unmarked) [Compound No. 2-140, N,N-Dimethyl-2-((1-(2-(2-methylthiazol-5-yl)-6-oxido-5,7-dihydrothieno[3,4-d]pyrimidin-4-yl)indolin-6-yl)oxy)acetamide]	95%	> 7.00
COc1ccc(-c2nc3c(c(N4CCc5ccc(OCC(=O)N(C)C)cc54)n2)C[S+]([O-])C3)nc1 (centres unmarked) [Compound No. 2-141, 2-((1-(2-(5-Methoxypyridin-2-yl)-6-oxido-5,7-dihydrothieno[3,4-d]pyrimidin-4-yl)indolin-6-yl)oxy)-N,N-dimethylacetamide]	98%	> 7.00
COc1ccc(-c2nc3c(c(N4CCc5ccc(OCC(=O)N(C)C)cc54)n2)CS(=O)(=O)C3)nc1 [Compound No. 2-143, 2-((1-(2-(5-Methoxypyridin-2-yl)-6,6-dioxido-5,7-dihydrothieno[3,4-d]pyrimidin-4-yl)indolin-6-yl)oxy)-N,N-dimethylacetamide]	87%	6.00 to 7.00 and > 7.00
N#CCOc1ccc2c(c1)N(c1nc(-c3ccc(Cl)s3)nc3c1CS(=O)(=O)C3)CC2 [Compound No. 3-1, 2-((1-(2-(5-Chlorothiophen-2-yl)-6,6-dioxido-5,7-dihydrothieno[3,4-d]pyrimidin-4-yl)indolin-6-yl)oxy)acetonitrile]		6.00 to 7.00
CN(C)CCOc1ccc2c(c1)N(c1nc(-c3ccc(Cl)s3)nc3c1CS(=O)(=O)C3)CC2 [Compound No. 3-3, 2-(5-Chlorothiophen-2-yl)-4-(6-(2-(dimethylamino)ethoxy)indolin-1-yl)-5,7-dihydrothieno[3,4-d]pyrimidine 6,6-dioxide]		6.00 to 7.00
CCNC(=O)Cc1ccc2c(c1)CCN2c1nc(-c2ccc(Cl)s2)nc2c1CS(=O)(=O)C2 [Compound No. 3-4, 2-(1-(2-(5-Chlorothiophen-2-yl)-6,6-dioxido-5,7-dihydrothieno[3,4-d]pyrimidin-4-yl)indolin-5-yl)-N-ethylacetamide]		6.00 to 7.00
CNC(=O)Cc1ccc2c(c1)CCN2c1nc(-c2ccc(Cl)s2)nc2c1CS(=O)(=O)C2 [Compound No. 3-5, 2-(1-(2-(5-Chlorothiophen-2-yl)-6,6-dioxido-5,7-dihydrothieno[3,4-d]pyrimidin-4-yl)indolin-5-yl)-N-methylacetamide]		6.00 to 7.00

Further lines, results first:

inhibition at 1 µM	pIC50	SMILES
85%	> 7.00	O=C(COc1ccc2c(c1)N(c1nc(-c3ccc(Cl)s3)nc3c1CS(=O)(=O)C3)CC2)N1CCOCC1 [Compound No. 2-125, 2-((1-(2-(5-Chlorothiophen-2-yl)-6,6-dioxido-5,7-dihydrothieno[3,4-d]pyrimidin-4-yl)indolin-6-yl)oxy)-1-morpholinoethanone]
104%	> 7.00	O=C(COc1ccc2c(c1)N(c1nc(-c3ccc(Cl)s3)nc3c1CS(=O)(=O)C3)CC2)N1CCCC1 [Compound No. 2-126, 2-((1-(2-(5-Chlorothiophen-2-yl)-6,6-dioxido-5,7-dihydrothieno[3,4-d]pyrimidin-4-yl)indolin-6-yl)oxy)-1-(pyrrolidin-1-yl)ethanone]
87%	> 7.00	O=C(COc1ccc2c(c1)N(c1nc(-c3ccncc3)nc3c1CS(=O)(=O)C3)CC2)N1CCCC1 [Compound No. 2-130, 2-((1-(6,6-Dioxido-2-(pyridin-4-yl)-5,7-dihydrothieno[3,4-d]pyrimidin-4-yl)indolin-6-yl)oxy)-1-(pyrrolidin-1-yl)ethanone]
90%	> 7.00	O=C(COc1ccc2c(c1)N(c1nc(-c3ccncc3)nc3c1CS(=O)(=O)C3)CC2)N1CCC1 [Compound No. 2-131, 1-(Azetidin-1-yl)-2-((1-(6,6-dioxido-2-(pyridin-4-yl)-5,7-dihydrothieno[3,4-d]pyrimidin-4-yl)indolin-6-yl)oxy)ethanone]
91%	> 7.00	CN(C)C(=O)COc1ccc2c(c1)N(c1nc(-c3ccncc3)nc3c1CS(=O)(=O)C3)CC2 [Compound No. 2-132, 2-((1-(6,6-Dioxido-2-(pyridin-4-yl)-5,7-dihydrothieno[3,4-d]pyrimidin-4-yl)indolin-6-yl)oxy)-N,N-dimethylacetamide]
94%	> 7.00	O=C(COc1ccc2c(c1)N(c1nc(-c3ccncc3)nc3c1C[S+]([O-])C3)CC2)N1CCCC1 (centres unmarked) [Compound No. 2-133, 2-((1-(6-Oxido-2-(pyridin-4-yl)-5,7-dihydrothieno[3,4-d]pyrimidin-4-yl)indolin-6-yl)oxy)-1-(pyrrolidin-1-yl)ethanone]
77%	> 7.00	O=C(COc1ccc2c(c1)N(c1nc(-c3ccncc3)nc3c1C[S+]([O-])C3)CC2)N1CCC1 (centres unmarked) [Compound No. 2-134, 1-(Azetidin-1-yl)-2-((1-(6-oxido-2-(pyridin-4-yl)-5,7-dihydrothieno[3,4-d]pyrimidin-4-yl)indolin-6-yl)oxy)ethanone]
97%	> 7.00	CN(C)C(=O)COc1ccc2c(c1)N(c1nc(-c3ccncc3)nc3c1C[S+]([O-])C3)CC2 (centres unmarked) [Compound No. 2-135, N,N-Dimethyl-2-((1-(6-oxido-2-(pyridin-4-yl)-5,7-dihydrothieno[3,4-d]pyrimidin-4-yl)indolin-6-yl)oxy)acetamide]
98%	> 7.00	CN(C)C(=O)COc1ccc2c(c1)N(c1nc(-c3cccnc3)nc3c1CS(=O)(=O)C3)CC2 [Compound No. 2-136, 2-((1-(6,6-Dioxido-2-(pyridin-3-yl)-5,7-dihydrothieno[3,4-d]pyrimidin-4-yl)indolin-6-yl)oxy)-N,N-dimethylacetamide]
97%	> 7.00	CN(C)C(=O)COc1ccc2c(c1)N(c1nc(-c3cccnc3)nc3c1C[S+]([O-])C3)CC2 (centres unmarked) [Compound No. 2-137, N,N-Dimethyl-2-((1-(6-oxido-2-(pyridin-3-yl)-5,7-dihydrothieno[3,4-d]pyrimidin-4-yl)indolin-6-yl)oxy)acetamide]
	> 7.00	COc1ccc(-c2nc3c(c(N4CCc5ccc(OCC(=O)N(C)C)cc54)n2)C[S+]([O-])C3)cn1 (centres unmarked) [Compound No. 2-139, 2-((1-(2-(6-Methoxypyridin-3-yl)-6-oxido-5,7-dihydrothieno[3,4-d]pyrimidin-4-yl)indolin-6-yl)oxy)-N,N-dimethylacetamide]
